The record followed here is PMC11541514, “Structural and Solution Speciation Studies on fac-Tricarbonylrhenium(I) Complexes of 2,2′-Bipyridine Analogues” (ACS Omega, 2024).

Data set [1] has as its system Colo205 human colonic adenocarcinoma cell line (doxorubicin-sensitive). The data set can be described thus: MTT cytotoxicity assay on Colo205 cells. Format: cell-based. The procedure:
The cytotoxic activity of selected halido (1–4Cl, and 3Br with chlorido and bromido coligand, respectively) and aqua (1–4Aq) complexes was evaluated in the drug-sensitive Colo205 and its resistant counterpart Colo320 human colonic adenocarcinoma cell lines using the colorimetric 3-(4,5-dimethylthiazol-2-yl)-2,5-diphenyl-tetrazolium bromide (MTT) assay. For comparison, fac-[Re(CO)3(bpy)(Cl)] (in which bpy denotes 2,2′-bipyridine) was also tested, and doxorubicin was used as a positive control. […] The aqua complexes (1–4Aq) were characterized by even higher IC50 values (>100 μM). The somewhat higher cytotoxic activity of the halido complexes might be the result of their kinetic inertness compared to aqua derivatives, based on the previous solution chemical studies. […]
(§1) The tested compounds were dissolved in DMSO or 20% (v/v) DMSO/H2O mixture to prepare 5 mM stock solutions, which were diluted in complete culture medium, to study the effect of compounds on the cell growth of human colonic adenocarcinoma cell lines (doxorubicin-sensitive Colo205 and resistant Colo320 colonic adenocarcinoma cells). […] Cell growth was determined by measuring the optical density (OD) at 540/630 nm with a Multiscan EX ELISA reader (Thermo Labsystems, Cheshire, WA, USA). […]
A general note: Formazan colour is commonly taken as a measure of viable cells.

For data set [2], the system named is Colo320/MDR-LRP resistant human colonic adenocarcinoma cell line. As to the kind of experiment: MTT cytotoxicity assay on Colo320 cells. Format: cell-based. Conditions: for IC50: MTT, incubation time 72 h. On the procedure: The cytotoxic activity of selected halido (1–4Cl, and 3Br with chlorido and bromido coligand, respectively) and aqua (1–4Aq) complexes was evaluated in the drug-sensitive Colo205 and its resistant counterpart Colo320 human colonic adenocarcinoma cell lines using the colorimetric 3-(4,5-dimethylthiazol-2-yl)-2,5-diphenyl-tetrazolium bromide (MTT) assay. For comparison, fac-[Re(CO)3(bpy)(Cl)] (in which bpy denotes 2,2′-bipyridine) was also tested, and doxorubicin was used as a positive control. […] The aqua complexes (1–4Aq) were characterized by even higher IC50 values (>100 μM). The somewhat higher cytotoxic activity of the halido complexes might be the result of their kinetic inertness compared to aqua derivatives, based on the previous solution chemical studies.
Doxorubicin-sensitive Colo205 (ATCC-CCL-222) and ABCB1 (MDR1)-LRP-expressing resistant Colo320/MDR-LRP (ATCC-CCL-220.1) human colonic adenocarcinoma cell lines were purchased from LGC Promochem (Teddington, UK). The cells were cultured in RPMI 1640 medium supplemented with 10% heat-inactivated fetal bovine serum, 2 mM L-glutamine, 1 mM Na-pyruvate, and 10 mM 4-(2-hydroxyethyl)-1-piperazineethanesulfonic acid (HEPES, Sigma, Steinheim, Germany). Cell lines were incubated at 37 °C in a 5% CO2, 95% air atmosphere. The semiadherent human colon cancer cells were detached with Trypsin-Versene (EDTA, Sigma, Steinheim, Germany) solution for 5 min at 37 °C.
as §1, with “cells). Doxorubicin (Merck, Darmstadt, Germany) was used as a positive control. The cells were treated with Trypsin-Versene (EDTA) solution.” for “cells).”

In the next data set the test system is Vero cells. The data set can be described thus: MTT assay on Vero cells, maximum non-toxic concentration. Conditions: incubation 24 h. Format: cell-based, African green monkey. The procedure: Selected compounds (1–4Aq, 1–4Cl, and 3Br) and the reference complex fac-[Re(CO)3(bpy)(Cl)] were tested for their antiviral activity against Herpes simplex virus 2 (HSV-2), which is a double-stranded DNA virus that infects mammals, including humans.[29] The antiviral activity of complexes against HSV-2 was investigated by using Vero cells (originally isolated from kidney epithelial cells of an African green monkey) to host the growing viruses.
Vero cells (ATCC) were placed into the 96-well plate (Sarstedt, Nümbrecht, Germany) at a density of 4 × 10^6 cells/plate. The cells at a density of 4 × 10^4 cells per well were in 100 μL of minimal essential medium (MEM) (Sigma; USA) with Earle salts supplemented with 25 μg/mL gentamicin, 10% heat-inactivated fetal bovine serum (FBS) (Gibco; Germany), 8 mM HEPES, 2 mM L-glutamine, 1× nonessential amino acids, and 1 μg/mL fungisone. The cells were incubated for 60 min at room temperature (RT) to avoid the edge effect and then for 24 h at 37 °C, 5% CO2 that secure a 90% confluent cell layer.[44]
MTT assay was used to determine the maximum non-toxic concentration of the complexes on Vero cells. […] Next day the absorbance of the wells was determined by a microtiter plate reader (Labsystems Multiskan Ex 355, Thermo Fisher Scientific, Waltham, MA USA). The absorbance of the formazan product was measured at 540 nm.[45]

Broadly, the IC50 is the concentration needed to halve the response being measured. A high value points to a need for much substance. For the compound `COc1cccc2c1C(=O)c1c(O)c3c(c(O)c1C2=O)C[C@@](O)(C(=O)CO)C[C@@H]3O[C@H]1C[C@H](N)[C@H](O)[C@H](C)O1` [doxorubicin, reference compound], the concentration for half-maximal inhibition (IC50) stood at 0.58 ± 0.06 µM in data set [1] (Homo sapiens, COLO 205, incubation time 72 h) and 3.13 ± 0.29 µM in data set [2] (Homo sapiens, COLO 320).

Regarding `[C-]#[O+].[C-]#[O+].[C-]#[O+].[Cl][Re-2]1[n+]2ccccc2-c2cccc[n+]21` [fac-[Re(CO)3(bpy)(Cl)], reference compound], the IC50 is 25.2 ± 1.1 µM in data set [1] (incubation time 72 h) and 49.1 ± 1.7 µM in data set [2]. Further, the “RF (resistance factor = IC50(Colo320)/IC50(Colo205))” value in data set [2] (72 h) is listed as 1.95. Also, in the data set with Vero cells, the maximum nontoxic concentration was 25 µM.
